Assays:
[1] = target: T1, C-X-C chemokine receptor type 4 (Homo sapiens, UniProt P61073); assay: Antagonist activity at human CXCR4 in CCRF-CEM cells assessed as decrease in SDF-1alpha stimulated Ca2+ flux preincubated for 25 mins followed by SDF-1alpha addition measured for 90 secs by calcium dye-based fluorescence assay; type: functional, cell-based
[2] = Metabolic stability in mouse liver microsomes assessed as parent compound remaining at 0.5 uM after 10 mins in presence of NADPH by LC-MS/MS analysis
[3] = Agonist activity at mAChR in human CCRF-CEM cells assessed as induction of Ca2+ flux measured for 90 secs by calcium dye-based fluorescence assay; type: cell-based
[4] = Antagonist activity at mAChR in human CCRF-CEM cells assessed as decrease in acetylacholine-stimulated Ca2+ flux preincubated for 25 mins followed by acetylacholine addition measured for 90 secs by calcium dye-based fluorescence assay; type: cell-based
[5] = Metabolic stability in human liver microsomes assessed as parent compound remaining at 0.5 uM after 10 mins in presence of NADPH by LC-MS/MS analysis
[6] = target: Cytochrome P450 2D6 (Homo sapiens, UniProt P10635); assay: Inhibition of recombinant human CYP2D6 expressed in microsomes of insect cells using AMMC as substrate preincubated for 30 mins followed by NADP addition after 45 mins by fluorescence analysis
[7] = target: T1, C-X-C chemokine receptor type 4; assay: Agonist activity at CXCR4 in human CCRF-CEM cells assessed as induction of Ca2+ flux measured for 90 secs by calcium dye-based fluorescence assay; type: functional, cell-based
[8] = Permeability of the compound at pH 7.4 at 100 uM after 4 hrs by PAMPA
[9] = Permeability of the compound at pH 5.5 at 100 uM after 4 hrs by PAMPA

Cytochrome P450 2D6, sequence (P10635 whole entry): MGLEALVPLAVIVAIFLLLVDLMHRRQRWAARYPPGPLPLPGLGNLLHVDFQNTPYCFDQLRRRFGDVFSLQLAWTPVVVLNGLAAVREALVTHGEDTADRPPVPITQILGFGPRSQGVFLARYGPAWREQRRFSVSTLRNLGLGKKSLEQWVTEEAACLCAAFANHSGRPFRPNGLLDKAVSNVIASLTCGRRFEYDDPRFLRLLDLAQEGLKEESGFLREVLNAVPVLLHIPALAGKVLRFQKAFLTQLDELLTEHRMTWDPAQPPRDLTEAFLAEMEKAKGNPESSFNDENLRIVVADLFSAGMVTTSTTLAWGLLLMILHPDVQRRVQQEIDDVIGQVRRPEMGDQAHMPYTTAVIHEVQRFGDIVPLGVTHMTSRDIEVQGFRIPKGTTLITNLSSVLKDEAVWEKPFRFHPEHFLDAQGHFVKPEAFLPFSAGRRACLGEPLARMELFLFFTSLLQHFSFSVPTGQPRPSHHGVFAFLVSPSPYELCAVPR
T1 sequence (P61073 whole entry): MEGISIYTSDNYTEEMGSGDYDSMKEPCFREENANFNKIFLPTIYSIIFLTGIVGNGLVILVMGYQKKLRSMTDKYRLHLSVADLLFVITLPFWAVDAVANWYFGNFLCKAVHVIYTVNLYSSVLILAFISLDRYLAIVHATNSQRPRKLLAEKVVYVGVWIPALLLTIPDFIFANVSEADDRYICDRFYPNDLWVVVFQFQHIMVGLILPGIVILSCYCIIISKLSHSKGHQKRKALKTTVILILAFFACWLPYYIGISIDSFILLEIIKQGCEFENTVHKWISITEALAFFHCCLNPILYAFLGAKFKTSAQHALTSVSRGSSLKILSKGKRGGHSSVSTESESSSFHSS

IC50 [1] [µM] | remaining at 10 min, 0.5 µM [2] [%] | EC50 [3] [µM] | IC50 [4] [µM] | remaining at 10 min, 0.5 µM [5] [%] | IC50 [6] [µM] | EC50 [7] [µM] | Papp at 4 h, 100 µM [8] [×10⁻⁶ cm/s] | Papp at 4 h, 100 µM [9] [×10⁻⁶ cm/s] | SMILES
0.0201 | 31.2 | > 30 | 3.43 | 71.7 | 0.141 | > 30 | – | – | c1ccc(CNCCCCN(C[C@H]2Cc3ccccc3CN2)[C@H]2CCCc3cccnc32)cc1
– | 34.8 | > 30 | > 16.7 | 20.4 | 0.507 | > 30 | 9.2 | – | c1ccc2c(c1)CN[C@@H](CN(Cc1ccc(CNC3CCOCC3)cc1)[C@H]1CCCc3cccnc31)C2
– | 4.39 | > 30 | 12.2 | 0.882 | 0.084 | > 30 | 38.5 | – | c1ccc2c(c1)CN[C@@H](CN(Cc1ccc(CNCc3ccncc3)cc1)[C@H]1CCCc3cccnc31)C2
– | – | > 30 | > 33.3 | – | – | – | – | – | NCc1ccc(CN(C[C@H]2Cc3ccccc3CN2)[C@H]2CCCc3cccnc32)cc1
0.0365 | 37.9 | > 30 | > 16.7 | 84.6 | 2.53 | > 30 | – | – | c1ccc2c(c1)CN[C@@H](CN(CCCCNCC1CCNCC1)[C@H]1CCCc3cccnc31)C2
0.00371 | – | > 30 | 28.2 | – | – | > 30 | – | – | FC1(F)CCC(NCCCCN(C[C@H]2Cc3ccccc3CN2)[C@H]2CCCc3cccnc32)CC1
0.0696 | 2.82 | > 30 | > 16.7 | 49.4 | 0.629 | > 30 | – | – | c1ccc2c(c1)CN[C@@H](CN(CCCCNCC1CCSCC1)[C@H]1CCCc3cccnc31)C2
0.0776 | 50 | > 30 | 19.9 | 30.1 | 0.09 | > 30 | 0.3 | – | CC1(C)CCC(NCCCCN(C[C@H]2Cc3ccccc3CN2)[C@H]2CCCc3cccnc32)CC1
– | – | > 30 | 21.4 | – | – | – | – | – | c1cncc(CNCc2ccc(CN(C[C@H]3Cc4ccccc4CN3)[C@H]3CCCc4cccnc43)cc2)c1
0.0438 | 60.3 | > 30 | 13 | 46.1 | 1.75 | > 30 | – | 6.2 | CC(C)(CCN(C[C@H]1Cc2ccccc2CN1)[C@H]1CCCc2cccnc21)CNCC1CCOCC1
0.0752 | 43.8 | > 30 | > 33.3 | 46.1 | 0.524 | > 30 | – | 1.45 | c1ccc2c(c1)CN[C@@H](CN(CCCCNC1CCCCC1)[C@H]1CCCc3cccnc31)C2
– | – | > 30 | > 16.7 | – | – | – | – | – | C(=C\CN(C[C@H]1Cc2ccccc2CN1)[C@H]1CCCc2cccnc21)/CNCc1ccncc1
0.0153 | 10.2 | > 30 | 19.9 | 21.4 | 0.217 | > 30 | – | – | c1cncc(CNCCCCN(C[C@H]2Cc3ccccc3CN2)[C@H]2CCCc3cccnc32)c1
0.0529 | 48.5 | > 30 | > 33.3 | 57.6 | 2.72 | > 30 | – | 0.6 | c1ccc2c(c1)CN[C@@H](CN(CCCCNCC1CCOCC1)[C@H]1CCCc3cccnc31)C2
> 16.7 | 0.298 | > 30 | > 33.3 | 4.84 | 0.494 | > 30 | – | 3.9 | c1ccc(CN(CCCCN(C[C@H]2Cc3ccccc3CN2)[C@H]2CCCc3cccnc32)Cc2ccccc2)cc1
– | – | > 30 | > 16.7 | – | – | – | – | – | c1ccc2c(c1)CN[C@@H](CN(Cc1ccc(CNCC3CCOCC3)cc1)[C@H]1CCCc3cccnc31)C2
0.0227 | 6.44 | > 30 | > 33.3 | 1.92 | 0.145 | > 30 | – | 0.65 | c1ccc2c(c1)CN[C@@H](CN(CCCCNCc1ccncc1)[C@H]1CCCc3cccnc31)C2
– | 89.2 | > 30 | 25.7 | 97.3 | 0.032 | > 30 | – | – | NCc1cccc(CN(C[C@H]2Cc3ccccc3CN2)[C@H]2CCCc3cccnc32)c1
0.168 | – | > 30 | > 16.7 | – | – | > 30 | – | – | FC1(F)CCC(CNCCCCN(C[C@H]2Cc3ccccc3CN2)[C@H]2CCCc3cccnc32)CC1
– | 30.2 | > 30 | > 16.7 | 10.8 | 0.577 | > 30 | 0.5 | – | FC1(F)CCC(NCc2ccc(CN(C[C@H]3Cc4ccccc4CN3)[C@H]3CCCc4cccnc43)cc2)CC1
0.0455 | 17.6 | > 30 | > 33.3 | 11.7 | 0.853 | > 30 | – | – | O=S1(=O)CCC(NCCCCN(C[C@H]2Cc3ccccc3CN2)[C@H]2CCCc3cccnc32)CC1
– | 0.953 | > 30 | 35.1 | 1.84 | 0.453 | > 30 | 24.4 | – | C(=C\CN(C[C@H]1Cc2ccccc2CN1)[C@H]1CCCc2cccnc21)/CNCc1cccnc1
– | – | > 30 | > 30 | – | – | – | – | – | c1ccc(CNCCCCN(C[C@H]2Cc3ccccc3CN2)[C@H]2CCCc3cccnc32)nc1
– | 11.6 | > 30 | 6.94 | 1.77 | 0.377 | > 30 | – | 1.6 | c1ccc(CNCc2ccc(CN(C[C@H]3Cc4ccccc4CN3)[C@H]3CCCc4cccnc43)cc2)nc1
0.017 | 39.3 | > 30 | > 16.7 | 74 | 1.17 | > 30 | – | – | O=S1(=O)CCC(CNCCCCN(C[C@H]2Cc3ccccc3CN2)[C@H]2CCCc3cccnc32)CC1
0.0294 | 55.8 | > 30 | > 33.3 | 53 | 0.657 | > 30 | – | – | c1ccc2c(c1)CN[C@@H](CN(CCCCNC1CCOCC1)[C@H]1CCCc3cccnc31)C2
– | 23.2 | > 30 | 8.76 | 14.9 | 0.258 | > 30 | – | – | CC1(C)CCC(NCc2ccc(CN(C[C@H]3Cc4ccccc4CN3)[C@H]3CCCc4cccnc43)cc2)CC1
0.0634 | 38 | > 30 | > 33.3 | 100 | 2.61 | > 30 | – | 1.9 | c1ccc2c(c1)CN[C@@H](CN(CCCCNC1CCNCC1)[C@H]1CCCc3cccnc31)C2
